Assay in all cases: Kinase profiling in a biochemical assay panel (mobility shift assays and ELISA), %-inhibition at 1 μM; selectivity entropy
Background: ELISA stands for enzyme-linked immunosorbent assay.

For experiment [1], the target named is T1, panel of more than 300 wild-type and mutant kinases (313 kinase panel) (Homo sapiens, UniProt O14733).
T1 sequence (O14733 1-419): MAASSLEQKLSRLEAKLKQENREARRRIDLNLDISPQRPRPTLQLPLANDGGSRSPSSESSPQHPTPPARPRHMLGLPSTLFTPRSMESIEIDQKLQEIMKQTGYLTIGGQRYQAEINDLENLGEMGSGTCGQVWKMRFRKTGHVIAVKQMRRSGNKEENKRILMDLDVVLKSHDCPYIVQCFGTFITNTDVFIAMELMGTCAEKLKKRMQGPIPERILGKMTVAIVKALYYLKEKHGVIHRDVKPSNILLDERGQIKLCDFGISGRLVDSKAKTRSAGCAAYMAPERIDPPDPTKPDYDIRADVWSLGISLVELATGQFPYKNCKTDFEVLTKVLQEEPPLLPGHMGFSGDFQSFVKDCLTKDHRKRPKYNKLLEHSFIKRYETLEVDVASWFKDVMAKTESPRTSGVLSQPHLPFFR

The target in experiment [2] is panel of more than 300 wild-type and mutant kinases (313 kinase panel) (Homo sapiens, UniProt O96017).
Experiment [3] addresses panel of more than 300 wild-type and mutant kinases (313 kinase panel) (Homo sapiens, UniProt P10721, V560G).
Experiment [4] concerns the target panel of more than 300 wild-type and mutant kinases (313 kinase panel) (Homo sapiens, UniProt P12931).
The target of experiment [5] is panel of more than 300 wild-type and mutant kinases (313 kinase panel) (Homo sapiens, UniProt P24941).
Experiment [6] has as its target panel of more than 300 wild-type and mutant kinases (313 kinase panel) (Homo sapiens, UniProt P27448).
For experiment [7], the target named is panel of more than 300 wild-type and mutant kinases (313 kinase panel) (Homo sapiens, UniProt P36894).
The target in experiment [8] is T2, panel of more than 300 wild-type and mutant kinases (313 kinase panel) (Homo sapiens, UniProt P42680).
T2 sequence (P42680 1-631): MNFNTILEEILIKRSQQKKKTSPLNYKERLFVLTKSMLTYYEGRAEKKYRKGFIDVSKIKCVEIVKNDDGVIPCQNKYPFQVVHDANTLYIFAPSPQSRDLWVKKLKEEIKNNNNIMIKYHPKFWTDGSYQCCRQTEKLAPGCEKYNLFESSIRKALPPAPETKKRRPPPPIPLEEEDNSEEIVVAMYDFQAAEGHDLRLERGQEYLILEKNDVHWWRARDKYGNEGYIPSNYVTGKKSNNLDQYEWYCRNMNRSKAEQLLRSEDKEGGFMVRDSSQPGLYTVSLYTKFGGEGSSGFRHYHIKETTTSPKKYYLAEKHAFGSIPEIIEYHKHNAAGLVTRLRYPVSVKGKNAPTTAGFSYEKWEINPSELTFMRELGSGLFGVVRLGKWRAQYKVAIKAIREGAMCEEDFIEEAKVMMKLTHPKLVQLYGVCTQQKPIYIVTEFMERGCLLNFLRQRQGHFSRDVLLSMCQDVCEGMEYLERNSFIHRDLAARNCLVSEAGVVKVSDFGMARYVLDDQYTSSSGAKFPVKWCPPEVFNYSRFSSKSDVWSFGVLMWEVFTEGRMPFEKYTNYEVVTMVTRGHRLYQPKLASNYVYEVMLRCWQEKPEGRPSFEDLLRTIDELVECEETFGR

Experiment [9] addresses panel of more than 300 wild-type and mutant kinases (313 kinase panel) (Homo sapiens, UniProt Q14289).
In experiment [10] the target is panel of more than 300 wild-type and mutant kinases (313 kinase panel) (Homo sapiens, UniProt Q15759).
The target in experiment [11] is panel of more than 300 wild-type and mutant kinases (313 kinase panel) (Homo sapiens, UniProt Q16512).
In experiment [12] the target is panel of more than 300 wild-type and mutant kinases (313 kinase panel) (Homo sapiens, UniProt Q96GD4).
Experiment [13] deals with panel of more than 300 wild-type and mutant kinases (313 kinase panel) (Homo sapiens, UniProt Q9UM73, L1196M).
Experiment [14] has as its target panel of more than 300 wild-type and mutant kinases (313 kinase panel) (Homo sapiens, UniProt Q9Y2H1).
The target of experiment [15] is panel of more than 300 wild-type and mutant kinases (313 kinase panel) (Homo sapiens, UniProt Q9Y6M4).
[16] abbreviates: kinase MAP2K7, compound at 1 μM.
Setting [17] is: kinase KIT(V560G), compound at 1 μM.
The mark [18] stands for this setting: kinase CDK2/CycA2, 1 μM compound.
Setting [19] is: kinase CDK2/CycE1, 1 μM compound.
Where [20] appears, read: kinase ALK(L1196M), 1 μM compound.

Read-outs that look alike come from different tables or passages of the source.

On to `C#Cc1cccc(Nc2ncnc3cc(OCCOC)c(OCCOC)cc23)c1` [erlotinib], for which the “%-inhibition of MAP2K7” value in experiment [1] (1 µM) was -5%. Further, the “%-inhibition, CHK2” value in [2] (1 µM) stood at 10%. Further, the “%-inhibition of KIT(V560G)” value in experiment [3] (1 µM) turned out to be 17%. For the same molecule, the “%-inhibition of SRC” value in experiment [4] (1 µM) was found to be 46%. Besides, in [5] (1 µM), the “%-inhibition, CDK2/CycA2” value is 10% and the “%-inhibition, CDK2/CycE1” value is reported as -2.43%. In experiment [6] (1 µM), the “%-inhibition of MARK3” value was 9%. Further, the “%-inhibition, BMPR1A” value in experiment [7] is recorded as 12%. Also, the “%-inhibition of TEC” value in experiment [8] (1 µM) amounted to 20%. In addition, the “%-inhibition of PYK2” value in [9] (1 µM) is reported as 8%. Further, the “%-inhibition of p38β” value in [10] (1 µM) is -4%. Also, in [11] (1 µM), the “%-inhibition of PKN1” value is given as 2.76%. Also, the “%-inhibition, AurB” value in [12] (1 µM) was found to be 25%. Moreover, the “%-inhibition, ALK(L1196M)” value in experiment [13] (1 µM) was found to be 18%. The “%-inhibition of NDR2” value in experiment [14] (1 µM) is -6%. Moreover, the “%-inhibition, CK1γ3” value in experiment [15] (1 µM) is on record as -0.719%.
On to `CNC(=O)c1cc(Oc2ccc(NC(=O)Nc3ccc(Cl)c(C(F)(F)F)c3)c(F)c2)ccn1` [regorafenib], for which the “%-inhibition of MAP2K7” value in [1] (setting [16]) is -2.53%. In addition, in experiment [2] (kinase CHK2, 1 μM compound), the “%-inhibition, CHK2” value was -2.11%. For the same molecule, the “%-inhibition of KIT(V560G)” value in experiment [3] (setting [17]) is 99%. In experiment [4] (kinase SRC, 1 μM), the “%-inhibition of SRC” value came out at 44%. The “%-inhibition, CDK2/CycA2” value in experiment [5] (setting [18]) was -12%. In addition, in experiment [5] (setting [19]), the “%-inhibition, CDK2/CycE1” value is given as -2.7%. The “%-inhibition of MARK3” value in experiment [6] (kinase MARK3, compound at 1 μM) is reported as -3.48%. The “%-inhibition, BMPR1A” value in experiment [7] (kinase BMPR1A, 1 μM compound) was -4.65%. In addition, the “%-inhibition of TEC” value in [8] (kinase TEC, 1 μM) is listed as -8%. For the same molecule, in experiment [9] (kinase PYK2, 1 μM), the “%-inhibition of PYK2” value is reported as -0.496%. The “%-inhibition of p38β” value in experiment [10] (kinase p38β, 1 μM) is 98%. Moreover, in experiment [11] (kinase PKN1, 1 μM), the “%-inhibition of PKN1” value amounted to 0.804%. The “%-inhibition, AurB” value in experiment [12] (kinase AurB, 1 μM compound) is reported as 20%. Moreover, in experiment [13] (setting [20]), the “%-inhibition, ALK(L1196M)” value was 0.358%. For the same molecule, in experiment [14] (kinase NDR2, 1 μM), the “%-inhibition of NDR2” value is reported as -8.54%. The “%-inhibition, CK1γ3” value in experiment [15] (kinase CK1γ3, 1 μM compound) was -2.14%.
As to `CO[C@H]1C[C@@H]2CC[C@@H](C)[C@@](O)(O2)C(=O)C(=O)N2CCCC[C@H]2C(=O)O[C@H]([C@H](C)C[C@@H]2CC[C@@H](OC(=O)C(C)(CO)CO)[C@H](OC)C2)CC(=O)[C@H](C)/C=C(\C)[C@@H](O)[C@@H](OC)C(=O)[C@H](C)C[C@H](C)/C=C/C=C/C=C/1C` [temsirolimus], the “%-inhibition of MAP2K7” value in experiment [1] (setting [16]) turned out to be 10%. Further, the “%-inhibition, CHK2” value in [2] (kinase CHK2, 1 μM compound) is reported as -3.45%. Moreover, the “%-inhibition of KIT(V560G)” value in experiment [3] (setting [17]) is given as -5%. Further, in experiment [4] (kinase SRC, 1 μM), the “%-inhibition of SRC” value worked out at 0.915%. The “%-inhibition, CDK2/CycA2” value in experiment [5] (setting [18]) was -8%. Besides, in experiment [5] (setting [19]), the “%-inhibition, CDK2/CycE1” value was -1.35%. For the same molecule, the “%-inhibition of MARK3” value in experiment [6] (kinase MARK3, compound at 1 μM) is -0.859%. Besides, the “%-inhibition, BMPR1A” value in experiment [7] (kinase BMPR1A, 1 μM compound) is on record as -9%. Further, the “%-inhibition of TEC” value in [8] (kinase TEC, 1 μM) is recorded as -9%. Also, the “%-inhibition of PYK2” value in [9] (kinase PYK2, 1 μM) was -3%. Besides, in experiment [10] (kinase p38β, 1 μM), the “%-inhibition of p38β” value was -2%. Moreover, in experiment [11] (kinase PKN1, 1 μM), the “%-inhibition of PKN1” value was determined as 0.71%. Also, the “%-inhibition, AurB” value in experiment [12] (kinase AurB, 1 μM compound) is on record as -4%. Besides, in experiment [13] (setting [20]), the “%-inhibition, ALK(L1196M)” value was -2.81%. The “%-inhibition of NDR2” value in experiment [14] (kinase NDR2, 1 μM) is listed as -3.63%. In addition, the “%-inhibition, CK1γ3” value in experiment [15] (kinase CK1γ3, 1 μM compound) is -1%.
With `CS(=O)(=O)CCNCc1ccc(-c2ccc3ncnc(Nc4ccc(OCc5cccc(F)c5)c(Cl)c4)c3c2)o1` [lapatinib], the “%-inhibition of MAP2K7” value in experiment [1] (setting [16]) is listed as -4%. Besides, the “%-inhibition, CHK2” value in [2] (kinase CHK2, 1 μM compound) is reported as 12%. The “%-inhibition of KIT(V560G)” value in experiment [3] (1 µM) is given as 2.33%. For the same molecule, in [4] (kinase SRC, 1 μM), the “%-inhibition of SRC” value stood at 6%. In experiment [5] (1 µM), the “%-inhibition, CDK2/CycE1” value is -2.57%. For the same molecule, the “%-inhibition of MARK3” value in experiment [6] (1 µM) came to 3.43%. The “%-inhibition, BMPR1A” value in experiment [7] is 7.37%. Moreover, the “%-inhibition of TEC” value in experiment [8] (kinase TEC, 1 μM) came to 0%. In [9] (kinase PYK2, 1 μM), the “%-inhibition of PYK2” value is listed as -0.787%. In experiment [10] (kinase p38β, 1 μM), the “%-inhibition of p38β” value was -10%. Further, in experiment [11] (kinase PKN1, 1 μM), the “%-inhibition of PKN1” value was 0%. For the same molecule, the “%-inhibition, AurB” value in experiment [12] (1 µM) stood at 9%. Further, in experiment [13] (setting [20]), the “%-inhibition, ALK(L1196M)” value was -3%. In addition, the “%-inhibition of NDR2” value in [14] (kinase NDR2, 1 μM) is given as -6%. In addition, in experiment [15] (1 µM), the “%-inhibition, CK1γ3” value was -0.863%.

The record behind these values is publication PMC3961306, “Comparison of the Cancer Gene Targeting and Biochemical Selectivities of All Targeted Kinase Inhibitors Approved for Clinical Use” (PLoS ONE, 2014).
